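Where inhibition never reached the appropriate level, the endpoint shown equals the highest concentration tested. Otherwise, values were interpolated linearly from a five-concentration, 48-hour dose response in 96-well plates. TGI marks complete inhibition of growth.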 Where a SMILES comes first, the peptide text is derived from it. [ ]: non-standard residue; d: D form. The star is where a group is joined. ξ: configuration not given here. ξF = NC(Cc1ccccc1)C(=O)O; Cbz = O=C(OCc1ccccc1)*

The test system of the first assay is SNB-19 CNS. Briefly: NCI tumour cell line growth inhibition, 48 h.
`CC(SC(=S)N1CCOCC1)C(=O)Nc1nnc(-c2ccc(Cl)cc2)o1` (stereo unspecified) displayed a TGI of more than 100 µM.
The compound `CC(=O)c1ccc(Nc2c3c(nc4ccccc24)CCCC3)cc1` registered a TGI of 99.5 µM.
Take `CCN1CCC(O)(c2ccc([N+](=O)[O-])cc2)C(C(=O)c2ccc([N+](=O)[O-])cc2)C1` (stereo unspecified): the TGI was more than 100 µM.
The same measure, in the same setting: with `CCOC(=O)CNC(=O)C(Cc1ccccc1)NC(=O)OCc1ccccc1` (stereo unspecified) (Cbz-[ξF]-Gly-OEt) the figure was more than 100 µM; with `S=C1Cc2c(-c3ccccc3)cc(-c3cccc(Cl)c3)nc2-c2ccccc2N1`, 7.97 µM.
Turning to `N#Cc1sc2nc3ccccc3n2c1N`, the TGI is more than 100 µM.
`O=C(CCc1cc(O)cc(O)c1)NCCc1cc(O)cc(OCc2ccccc2)c1` displayed a TGI of more than 100 µM.
On the same count and under the same terms, with `N#Cc1c(NC(=O)C(F)(F)F)sc2c3c(=O)c4ccccc4c(=O)c=3oc3ccccc3c12` the figure was 49.5 µM.
As for `Cc1c(C)c2c(c(N)c1C#N)C(=O)N(Cc1ccc(S(N)(=O)=O)cc1)C2=O`, the TGI came to 38.7 µM.
Regarding `CN(NC1=NCCO1)c1ccc2ccccc2c1`, the TGI is more than 100 µM.
In turn, `COC(=O)/C=C/c1ccc(OP(=O)(O)O)c(OC)c1` had a TGI of more than 100 µM.
The compound `O=C(NCCN(CCNC(=O)c1cccc(O)c1O)CCNC(=O)c1cccc(O)c1O)c1cccc(O)c1O` gave a TGI of more than 100 µM.
As to `COc1cc2nc(Cl)nc(NS(=O)(=O)c3cc4ccccc4s3)c2cc1OC`, the TGI stood at 48.6 µM.
`COC(=O)/C=C(\C(=O)OC)c1cc(C)c2cc(C(C)C)ccc(C)c1-2` displayed a TGI of more than 100 µM.
For the compound `C[C@@H](CC(=O)OCc1ccccc1)OC1OC(COC(=O)C(C)(C)C)C(OC(=O)C(C)(C)C)C(OC(=O)C(C)(C)C)C1OC(=O)C(C)(C)C` (stereo partly specified), the TGI was more than 100 µM.
Same read-out and setting: the value for `CC(C)(C)OC(=O)N(CCCCNC(=O)C(F)(F)F)CCCNC(=O)C(F)(F)F` was more than 100 µM; that for `C=C1CC[C@@H](CCC2CCC3(OC2)O[C@]2(O)CC[C@@]3(C)OC2(C)C)C(C)(C)[C@H]1C/C=C1\CCOC1=O` (stereo partly specified) was more than 100 µM.
For the compound `Cc1nc2c(sc3nc4c(cc32)CCC4)c(=O)o1`, the TGI is more than 96.6 µM.
The same measure, in the same setting: the value for `Cc1ccc(OCC2OC(n3cnc4c(Cl)nc(Nc5cc(Cl)cc(Cl)c5)nc43)CC2Oc2ccc(C)cc2)cc1` (stereo unspecified) was more than 100 µM.
As to `C=CCON(C(=O)OC(C)(C)C)C(C)(C)C`, the TGI is more than 100 µM.
Regarding `COC(=O)c1c(C)cccc1/C=C1\Cc2ccc(C)c(C)c2C1=O`, the TGI is more than 100 µM.
In the case of `COc1ccccc1C1c2cc3c(cc2OC2(OC)COC(=O)C12)OCO3` (stereo unspecified), the TGI was more than 77.6 µM.

The test system of the next assay is T-47D breast. The assay can be described thus: NCI tumour cell line growth inhibition, 48 h.
On to `CC(SC(=S)N1CCOCC1)C(=O)Nc1nnc(-c2ccc(Cl)cc2)o1` (stereo unspecified), for which the TGI was more than 100 µM.
For `CC(=O)c1ccc(Nc2c3c(nc4ccccc24)CCCC3)cc1`, the TGI was more than 52.2 µM.
Still for that read-out and setting: with `CCN1CCC(O)(c2ccc([N+](=O)[O-])cc2)C(C(=O)c2ccc([N+](=O)[O-])cc2)C1` (stereo unspecified) the figure was 46.4 µM; with `CCOC(=O)CNC(=O)C(Cc1ccccc1)NC(=O)OCc1ccccc1` (stereo unspecified) (Cbz-[ξF]-Gly-OEt), more than 100 µM.
In the case of `S=C1Cc2c(-c3ccccc3)cc(-c3cccc(Cl)c3)nc2-c2ccccc2N1`, the TGI was 21.6 µM.
As for `N#Cc1sc2nc3ccccc3n2c1N`, the TGI is more than 100 µM.
Consider `O=C(CCc1cc(O)cc(O)c1)NCCc1cc(O)cc(OCc2ccccc2)c1`, for which the TGI is more than 100 µM.
Still for that read-out and setting: the value for `N#Cc1c(NC(=O)C(F)(F)F)sc2c3c(=O)c4ccccc4c(=O)c=3oc3ccccc3c12` was 59.3 µM.
Still for that read-out and setting: with `Cc1c(C)c2c(c(N)c1C#N)C(=O)N(Cc1ccc(S(N)(=O)=O)cc1)C2=O` the figure was more than 59.2 µM; with `CN(NC1=NCCO1)c1ccc2ccccc2c1`, more than 100 µM; with `COC(=O)/C=C/c1ccc(OP(=O)(O)O)c(OC)c1`, more than 100 µM.
On to `O=C(NCCN(CCNC(=O)c1cccc(O)c1O)CCNC(=O)c1cccc(O)c1O)c1cccc(O)c1O`, for which the TGI was more than 89.7 µM.
In turn, `COc1cc2nc(Cl)nc(NS(=O)(=O)c3cc4ccccc4s3)c2cc1OC` registered a TGI of 56.7 µM.
With `COC(=O)/C=C(\C(=O)OC)c1cc(C)c2cc(C(C)C)ccc(C)c1-2`, the TGI was more than 100 µM.
With `C[C@@H](CC(=O)OCc1ccccc1)OC1OC(COC(=O)C(C)(C)C)C(OC(=O)C(C)(C)C)C(OC(=O)C(C)(C)C)C1OC(=O)C(C)(C)C` (stereo partly specified), the TGI is more than 100 µM.
`CC(C)(C)OC(=O)N(CCCCNC(=O)C(F)(F)F)CCCNC(=O)C(F)(F)F`: the TGI was more than 100 µM.
For `C=C1CC[C@@H](CCC2CCC3(OC2)O[C@]2(O)CC[C@@]3(C)OC2(C)C)C(C)(C)[C@H]1C/C=C1\CCOC1=O` (stereo partly specified), the TGI turned out to be 90.3 µM.
On the same count and under the same terms, the value for `Cc1nc2c(sc3nc4c(cc32)CCC4)c(=O)o1` was more than 100 µM; that for `Cc1ccc(OCC2OC(n3cnc4c(Cl)nc(Nc5cc(Cl)cc(Cl)c5)nc43)CC2Oc2ccc(C)cc2)cc1` (stereo unspecified) was more than 100 µM; that for `C=CCON(C(=O)OC(C)(C)C)C(C)(C)C` was more than 100 µM.
Compound `COC(=O)c1c(C)cccc1/C=C1\Cc2ccc(C)c(C)c2C1=O` had a TGI of more than 100 µM.
Take `COc1ccccc1C1c2cc3c(cc2OC2(OC)COC(=O)C12)OCO3` (stereo unspecified): the TGI was more than 100 µM.

Another assay relates to U251 CNS. Briefly: NCI tumour cell line growth inhibition, 48 h.
On to `CC(SC(=S)N1CCOCC1)C(=O)Nc1nnc(-c2ccc(Cl)cc2)o1` (stereo unspecified), for which the TGI was more than 100 µM.
`CC(=O)c1ccc(Nc2c3c(nc4ccccc24)CCCC3)cc1` registered a TGI of more than 59.2 µM.
`CCN1CCC(O)(c2ccc([N+](=O)[O-])cc2)C(C(=O)c2ccc([N+](=O)[O-])cc2)C1` (stereo unspecified) came in with a TGI of more than 100 µM.
The compound `CCOC(=O)CNC(=O)C(Cc1ccccc1)NC(=O)OCc1ccccc1` (stereo unspecified) (Cbz-[ξF]-Gly-OEt) yielded a TGI of more than 100 µM.
For the compound `S=C1Cc2c(-c3ccccc3)cc(-c3cccc(Cl)c3)nc2-c2ccccc2N1`, the TGI was found to be 3.31 µM.
`N#Cc1sc2nc3ccccc3n2c1N`: the TGI is more than 100 µM.
The compound `O=C(CCc1cc(O)cc(O)c1)NCCc1cc(O)cc(OCc2ccccc2)c1` showed a TGI of more than 100 µM.
Same read-out and setting: with `N#Cc1c(NC(=O)C(F)(F)F)sc2c3c(=O)c4ccccc4c(=O)c=3oc3ccccc3c12` the figure was 41.3 µM.
`Cc1c(C)c2c(c(N)c1C#N)C(=O)N(Cc1ccc(S(N)(=O)=O)cc1)C2=O`: the TGI is more than 80.6 µM.
The compound `CN(NC1=NCCO1)c1ccc2ccccc2c1` yielded a TGI of more than 100 µM.
Compound `COC(=O)/C=C/c1ccc(OP(=O)(O)O)c(OC)c1` returned a TGI of more than 100 µM.
Regarding `O=C(NCCN(CCNC(=O)c1cccc(O)c1O)CCNC(=O)c1cccc(O)c1O)c1cccc(O)c1O`, the TGI was more than 89 µM.
On to `COc1cc2nc(Cl)nc(NS(=O)(=O)c3cc4ccccc4s3)c2cc1OC`, for which the TGI stood at 68.5 µM.
`COC(=O)/C=C(\C(=O)OC)c1cc(C)c2cc(C(C)C)ccc(C)c1-2` returned a TGI of more than 100 µM.
As to `C[C@@H](CC(=O)OCc1ccccc1)OC1OC(COC(=O)C(C)(C)C)C(OC(=O)C(C)(C)C)C(OC(=O)C(C)(C)C)C1OC(=O)C(C)(C)C` (stereo partly specified), the TGI is more than 100 µM.
The same measure, in the same setting: the value for `CC(C)(C)OC(=O)N(CCCCNC(=O)C(F)(F)F)CCCNC(=O)C(F)(F)F` was more than 100 µM; that for `C=C1CC[C@@H](CCC2CCC3(OC2)O[C@]2(O)CC[C@@]3(C)OC2(C)C)C(C)(C)[C@H]1C/C=C1\CCOC1=O` (stereo partly specified) was 43.5 µM; that for `Cc1nc2c(sc3nc4c(cc32)CCC4)c(=O)o1` was more than 100 µM.
`Cc1ccc(OCC2OC(n3cnc4c(Cl)nc(Nc5cc(Cl)cc(Cl)c5)nc43)CC2Oc2ccc(C)cc2)cc1` (stereo unspecified): the TGI is more than 100 µM.
`C=CCON(C(=O)OC(C)(C)C)C(C)(C)C` returned a TGI of more than 100 µM.
Take `COC(=O)c1c(C)cccc1/C=C1\Cc2ccc(C)c(C)c2C1=O`: the TGI was more than 100 µM.
Still for that read-out and setting: the value for `COc1ccccc1C1c2cc3c(cc2OC2(OC)COC(=O)C12)OCO3` (stereo unspecified) was more than 100 µM.

The values above are taken from PubChem BioAssay (NCI).
